Test results from patent US7772245B2, “Inhibitors of histone deacetylase” (Miikana Therapeutics, Inc., priority 2005, dated 2010).

How the values were obtained:
HDAC = assay: In vitro fluorescent histone deacetylase assay (Biomol HDAC fluorescent activity kit, HeLa cell nuclear extract); assay type: biochemical; conditions: 100 μM compound; HeLa cell nuclear extract as source of HDAC activity; 50 μM substrate, 10 min at room temperature
Procedure, shortened: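 HeLa nuclear extract as HDAC source with fluorogenic substrate at 50 μM final, reacting 10 min at room temperature before stop. Compounds serially diluted in assay buffer, final DMSO ≤2%; fluorescence read at ex 355 nm / em 460 nm.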

HCT116 cells = assay: Whole cell cytotoxicity assay: Sulforhodamine B; assay type: cell-based; conditions: Homo sapiens, HCT-116; 100 μM compound; 48 hours incubation with drug; Sulforhodamine B staining; read-out: % Inhibition of HCT116 cell growth @ 100 μM

SMILES	% Inhibition of HDAC @ 100 μM (HDAC) [%]	inhibition at 100 µM (HCT116 cells) [%]
O=C(NO)c1cnc(N2CCc3c(oc4ccccc34)C2)nc1 [Example 119, 2-(3,4-dihydro[1]benzofuro[2,3-c]pyridin-2(1)-yl)-N-hydroxypyrimidine-5-carboxamide]	99.3	98.6
O=C(NO)c1cnc(N2CCc3[nH]c4cc(-c5ccccc5)ccc4c3C2)nc1 [Example 120, N-hydroxy-2-{7-phenyl-1,3,4,5-tetrahydro-2H-pyrido[4,3-b]indol-2-yl}pyrimidine-5-carboxamide]	99.6	97.6
O=C(NO)c1cnc(N2CCc3[nH]c4ccccc4c(=O)c3C2)nc1 [Example 122, N-hydroxy-2-(10-oxo-3,4,5,10-tetrahydrobenzo[b]-1,6-naphthyridin-2(1H)-yl)pyrimidine-5-carboxamide]	100	44.4
CN1CCN(Cc2ccc3[nH]c4c(c3c2)CN(c2ncc(C(=O)NO)cn2)CC4)CC1 [Example 123, N-hydroxy-2-{8-[(4-methylpiperazin-1-yl)methyl]-1,3,4,5-tetrahydro-2H-pyrido[4,3-b]indol-2-yl}pyrimidine-5-carboxamide]	100	97
